One data set has as its target T1, CYP1A2 (Homo sapiens, UniProt P05177).
T1 construct: host or cells: insect cells (membranes)
T1 sequence (P05177 2-516 limits assumed): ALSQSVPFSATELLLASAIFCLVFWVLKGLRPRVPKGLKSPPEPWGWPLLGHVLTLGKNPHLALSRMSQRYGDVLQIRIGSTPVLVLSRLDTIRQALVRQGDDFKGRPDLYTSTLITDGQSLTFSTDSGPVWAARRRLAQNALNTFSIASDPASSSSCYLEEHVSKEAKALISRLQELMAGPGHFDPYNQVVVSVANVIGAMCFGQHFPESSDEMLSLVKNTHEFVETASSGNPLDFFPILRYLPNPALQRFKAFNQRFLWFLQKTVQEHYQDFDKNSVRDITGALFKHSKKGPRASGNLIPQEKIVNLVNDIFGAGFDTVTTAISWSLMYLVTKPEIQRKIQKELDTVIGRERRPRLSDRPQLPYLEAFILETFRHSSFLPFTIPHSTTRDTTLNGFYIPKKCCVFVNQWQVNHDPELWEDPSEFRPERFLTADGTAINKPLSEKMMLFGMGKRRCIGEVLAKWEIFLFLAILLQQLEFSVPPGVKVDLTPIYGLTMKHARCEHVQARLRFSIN
Put plainly: Substrate depletion with recombinant CYP1A2. The settings on record: for kobs: recombinant CYP1A2, substrate depletion at 1.0 μM, 10 pmol/mL rCYP, 37 °C. The data set is classed as in vitro ADME. On the procedure: (§1) Relative CYP activities were determined from the ratio of the depletion rate constant for each isoform relative to that for CYP3A4. […] Eight 100 μL aliquots each were removed over a period of 70 to 90 minutes and added to 100 μL of a 0.1 μM solution of an internal standard in methanol to quench the enzymatic reaction. The samples were filtered through a high protein-binding capacity filter membrane in a 96-well format. The filtrates were evaporated in a vacuum centrifuge to near dryness, diluted with 125 μL of water, and a 99 μL aliquot was analyzed by reversed phase chromatography/mass spectrometry using selected reaction monitoring. Rate constants were determined from the semi-logarithmic plots of the time versus ratio of the area under the peak for specific transitions of the various substrates and the internal standard. The intrinsic clearance isotope effect was determined from the ratio of the rate constants for the protio- and respective deuterio- forms.

The target in another data set is T2, CYP2C9 (Homo sapiens, UniProt P11712).
T2 construct: host or cells: insect cells (membranes)
T2 sequence (P11712 whole entry): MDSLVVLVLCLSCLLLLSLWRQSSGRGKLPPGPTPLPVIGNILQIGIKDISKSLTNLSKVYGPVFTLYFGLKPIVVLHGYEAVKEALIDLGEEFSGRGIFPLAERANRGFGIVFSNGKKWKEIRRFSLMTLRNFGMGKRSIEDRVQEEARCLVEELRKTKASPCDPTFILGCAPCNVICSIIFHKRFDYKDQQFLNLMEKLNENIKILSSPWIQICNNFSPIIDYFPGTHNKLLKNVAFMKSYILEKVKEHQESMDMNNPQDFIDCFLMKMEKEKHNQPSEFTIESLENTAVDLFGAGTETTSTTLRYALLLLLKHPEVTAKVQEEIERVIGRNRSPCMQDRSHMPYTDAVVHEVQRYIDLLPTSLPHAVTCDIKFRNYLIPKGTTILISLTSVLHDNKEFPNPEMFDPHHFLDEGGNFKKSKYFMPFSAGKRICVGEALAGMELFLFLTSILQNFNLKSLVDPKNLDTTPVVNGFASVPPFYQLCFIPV
Put plainly: Substrate depletion with recombinant CYP2C9. The data set is classed as in vitro ADME. As to the method: as §1

For another data set, the target named is T3, CYP2C19 (Homo sapiens, UniProt P33261).
T3 construct: host or cells: insect cells (membranes)
T3 sequence (P33261 whole entry): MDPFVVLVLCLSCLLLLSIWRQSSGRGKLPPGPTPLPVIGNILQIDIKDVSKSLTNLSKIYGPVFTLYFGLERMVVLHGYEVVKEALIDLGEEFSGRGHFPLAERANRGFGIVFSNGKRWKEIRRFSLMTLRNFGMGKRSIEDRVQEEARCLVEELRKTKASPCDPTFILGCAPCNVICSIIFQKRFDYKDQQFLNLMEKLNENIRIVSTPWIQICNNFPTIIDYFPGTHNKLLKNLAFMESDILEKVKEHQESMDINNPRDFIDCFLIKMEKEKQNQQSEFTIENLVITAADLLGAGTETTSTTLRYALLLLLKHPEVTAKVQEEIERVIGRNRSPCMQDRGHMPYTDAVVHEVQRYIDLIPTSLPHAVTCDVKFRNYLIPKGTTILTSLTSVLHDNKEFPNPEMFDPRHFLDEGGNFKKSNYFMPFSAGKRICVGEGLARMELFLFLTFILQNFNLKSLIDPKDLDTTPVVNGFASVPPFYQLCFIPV
Put plainly: Substrate depletion with recombinant CYP2C19. The data set is classed as in vitro ADME. As to conditions: for kobs: recombinant CYP2C19, substrate depletion at 1.0 μM, 10 pmol/mL rCYP, 37 °C. On the procedure: as §1

For the next data set, the target named is T4, CYP2D6 (Homo sapiens, UniProt P10635).
T4 construct: host or cells: insect cells (membranes)
T4 sequence (P10635 whole entry): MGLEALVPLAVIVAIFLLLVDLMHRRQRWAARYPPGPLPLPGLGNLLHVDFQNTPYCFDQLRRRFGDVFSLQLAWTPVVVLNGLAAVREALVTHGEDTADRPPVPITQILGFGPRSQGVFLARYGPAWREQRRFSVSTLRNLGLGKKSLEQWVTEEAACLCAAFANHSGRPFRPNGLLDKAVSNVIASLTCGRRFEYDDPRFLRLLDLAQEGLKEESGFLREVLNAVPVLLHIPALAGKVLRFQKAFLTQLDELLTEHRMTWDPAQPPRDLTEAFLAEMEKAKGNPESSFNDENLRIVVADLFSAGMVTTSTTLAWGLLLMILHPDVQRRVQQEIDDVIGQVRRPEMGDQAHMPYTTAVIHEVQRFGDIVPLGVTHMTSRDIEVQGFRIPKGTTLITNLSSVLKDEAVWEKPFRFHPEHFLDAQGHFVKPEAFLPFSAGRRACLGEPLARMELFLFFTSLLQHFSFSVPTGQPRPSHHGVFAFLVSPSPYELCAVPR
Put plainly: Substrate depletion with recombinant CYP2D6. The data set is classed as in vitro ADME. On the procedure:
as §1

The target of the next data set is T5, CYP2C8 (Homo sapiens, UniProt P10632).
T5 construct: host or cells: insect cells (membranes)
T5 sequence (P10632 1-490): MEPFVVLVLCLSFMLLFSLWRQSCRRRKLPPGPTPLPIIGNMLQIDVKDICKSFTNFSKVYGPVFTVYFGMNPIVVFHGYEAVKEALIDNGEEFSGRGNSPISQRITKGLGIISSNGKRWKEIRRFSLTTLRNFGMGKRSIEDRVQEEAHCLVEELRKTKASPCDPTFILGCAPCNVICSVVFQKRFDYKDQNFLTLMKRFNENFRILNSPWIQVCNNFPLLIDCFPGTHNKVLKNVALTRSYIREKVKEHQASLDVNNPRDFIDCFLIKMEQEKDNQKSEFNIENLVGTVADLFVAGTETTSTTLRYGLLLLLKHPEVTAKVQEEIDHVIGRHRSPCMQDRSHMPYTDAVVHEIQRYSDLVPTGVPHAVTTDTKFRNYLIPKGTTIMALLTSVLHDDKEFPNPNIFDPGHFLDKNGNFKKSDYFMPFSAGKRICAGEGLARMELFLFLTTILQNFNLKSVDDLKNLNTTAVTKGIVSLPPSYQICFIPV
Put plainly: Substrate depletion with recombinant CYP2C8. Format: in vitro ADME. As to conditions: for As % of CYP3A4: recombinant CYP2C8, depletion rate constant relative to CYP3A4. As to the method:
as §1

Data set [1] can be described thus: Estimation of Km by the substrate depletion method. Format: in vitro ADME. The settings on record: human, pH 7.4. As to the method:
as §1

In another data set the target is T6, CYP3A4 (Homo sapiens, UniProt P08684).
T6 construct: host or cells: insect cells (membranes)
T6 sequence (P08684 2-503 limits assumed): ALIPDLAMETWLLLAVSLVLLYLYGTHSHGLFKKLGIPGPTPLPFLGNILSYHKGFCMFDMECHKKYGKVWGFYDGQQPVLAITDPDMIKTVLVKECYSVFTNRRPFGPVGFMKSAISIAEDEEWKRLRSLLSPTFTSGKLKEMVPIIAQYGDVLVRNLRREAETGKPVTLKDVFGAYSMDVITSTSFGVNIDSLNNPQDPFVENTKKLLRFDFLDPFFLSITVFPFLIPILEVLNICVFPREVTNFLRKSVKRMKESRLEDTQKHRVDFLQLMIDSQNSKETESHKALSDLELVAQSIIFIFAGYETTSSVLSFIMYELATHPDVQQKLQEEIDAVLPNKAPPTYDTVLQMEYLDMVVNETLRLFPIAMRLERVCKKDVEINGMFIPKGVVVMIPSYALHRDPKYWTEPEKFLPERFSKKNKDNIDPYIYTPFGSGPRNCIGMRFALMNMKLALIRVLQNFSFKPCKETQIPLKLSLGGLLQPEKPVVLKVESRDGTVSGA
The data set is classed as in vitro ADME. The settings on record: 1 μM, pH 7.4. As to the method: as §1

Some results are limits rather than exact numbers.

Results on two compounds are retold here after PMC6235261, “Deuterium isotope effects in drug pharmacokinetics II: Substrate-dependence of the reaction mechanism influences outcome for cytochrome P450 cleared drugs” (PLoS ONE, 2018).

The term Km denotes the concentration of substrate that gives half-maximal velocity. The melting point is the temperature of the solid-liquid transition.

Compound `CCNc1nc2c(c(C(N)=O)n1)CN(C(=O)CCc1ccc(OC(F)(F)F)cc1)CC2` [Compound 1a] displayed a melting point of 132 to 133 °C. Also, the kobs on CYP1A2 worked out at 0.009 min⁻¹. For the same compound, at CYP2C9 (recombinant CYP2C9, substrate depletion at 1.0 μM, 10 pmol/mL rCYP, 37 °C), the kobs is 0.050 min⁻¹. Also, the kobs on CYP2C19 stood at 0.071 min⁻¹. On CYP2D6 (recombinant CYP2D6, substrate depletion at 1.0 μM, 10 pmol/mL rCYP, 37 °C), the kobs was 0.015 min⁻¹. Moreover, at CYP2C8, the “As % of CYP3A4” value came to 0%. Further, the kobs at CYP2C8 (recombinant CYP2C8, substrate depletion at 1.0 μM, 10 pmol/mL rCYP, 37 °C) came to 0.001 min⁻¹. The Km in data set [1] is more than 5 µM.

For the compound `COc1cccc(-n2nnc(C3CC3)c2C(=O)N(C)c2ccc(C#N)cc2)c1` [Compound 2a], the kobs on CYP3A4 is 0.059 min⁻¹; at CYP1A2, less than 0.001 min⁻¹; at CYP2C19, 0.014 min⁻¹. The “As % of CYP3A4” value on CYP3A4 (recombinant enzyme) stood at 100%; on CYP1A2 (recombinant CYP1A2, depletion rate constant relative to CYP3A4), 0%; on CYP2C9 (recombinant CYP2C9, depletion rate constant relative to CYP3A4), 0%; on CYP2C19 (recombinant CYP2C19, depletion rate constant relative to CYP3A4), 24%; at CYP2D6 (recombinant CYP2D6, depletion rate constant relative to CYP3A4), 0%; on CYP2C8, 0%. In data set [1], the Km was more than 5 µM.
